Experimental data as given in patent US9440957B2, “Compounds and compositions for modulating EGFR Activity” (Novartis AG, priority 2012, dated 2016).
Like-named read-outs stand apart in the source and are kept apart here.

Tests used:
[1] = target: T1, EGFR(L858R/T790M) (Homo sapiens, UniProt P00533, L858R/T790M); assay: EGFR biochemical assay (HTRF), IC50 determinations
T1 construct: purchased from Carna (GST-a.a. 669-1210)
Procedure, shortened: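 Two formats were run: compound preincubated at room temperature with enzyme and biotin-TK peptide before ATP starts the reaction, or no preincubation with enzyme added last. Reactions ran 60 min at room temperature and were stopped with EDTA. Phosphopeptide was read by HTRF (PT66K/SAXL, 1 h).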

[2] = target: human EGFR L858R (NIH/3T3 cells) (Homo sapiens, UniProt P00533, L858R); assay: EGFR target modulation in engineered NIH/3T3 cell lines (phospho-EGFR Y1068 AlphaLISA), EGFR L858R; format: cell-based; conditions: engineered NIH/3T3 cells, read-out: NIH3T3 IC50 (μM) EGFR (L858R)
Procedure, shortened: (§1)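 Engineered NIH/3T3 cells expressing EGFR variants treated 3 h at 37 °C with 12-point 1:3 compound series (top stock 10 μM); only WT cells stimulated with 50 ng/ml EGF for 5 min before lysis. Phospho-Y1068 measured by AlphaLISA with total-EGFR antibody; IC50 from non-linear fitting.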

[3] = target: human EGFR L858R/T790M (NIH/3T3 cells) (Homo sapiens, UniProt P00533, L858R/T790M); assay: EGFR target modulation in engineered NIH/3T3 cell lines (phospho-EGFR Y1068 AlphaLISA), EGFR L858R/T790M; format: cell-based; conditions: engineered NIH/3T3 cells, read-out: NIH3T3 IC50 (μM) EGFR (L858R/T790M)
Procedure, shortened: as §1

[4] = target: HEKn (EGFR WT) (Homo sapiens, UniProt P00533); assay: EGFR target modulation in HEKn (EGFR-WT) cell line (phospho-EGFR Y1173 ELISA); format: cell-based; conditions: value outside parentheses
Description: EGFR Target Modulation in HEKn (EGFR-WT) Cell Line Tissue Culture. Human neonatal epithelial keratinocytes (Invitrogen #C-001-5C) were maintained in EpiLife media (Invitrogen #[…]) supplemented with growth factors (Invitrogen #S-001-5). Cells were harvested with 0.05% Trypsin/EDTA (Hyclone #SH30236.01) and quenched with 5% FBS/EpiLife media. […] The serial diluted compounds were transferred to the plate containing cells by using a 50 nl Pin Head device (Perkin Elmer) and the cells were placed back in the incubator for 3 hours. […] Phospho-EGFR (Y1173) ELISA. Solid white high-binding ELISA plates (Greiner #781074) were coated with 5 ug/ml anti-EGFR capture antibody (R&D Systems #AF231) overnight in 50 mM carbonate/bicarbonate pH 9.5 buffer. […] Wash steps were carried out with a Bio-Tek ELx405 SelectTM using 4 cycles of 100 ul TBS-T (20 mM Tris, 137 mM NaCl, 0.05% Tween-20) per well. […] Lysis was allowed to occur for 20 minutes on ice. A 25 ul aliquot was added to each well of the blocked ELISA plate and incubated overnight at 4° C. with gentle shaking. […] After washing, 1:2,000 anti-rabbit-HRP (Cell Signaling #7074) in 0.2% BSA/TBS-T was added and incubated for 1 hour at room temperature. Chemiluminescent detection was carried out with SuperSignal ELISA Pico substrate (ThermoScientific #37069). Signal was read on EnVision plate reader using built-in UltraLUM setting. Data Analysis. Control cells treated with EGF were set to 100% maximum response. […] With these parameters, the IC50's for each compound in each cell line was calculated using non-linear curve fitting analysis.

[5] = target: H3255 (EGFR L858R) (Homo sapiens, UniProt P00533, L858R); assay: EGFR target modulation in H3255 cell line (phospho-EGFR Y1173 ELISA); format: cell-based
Description: (§2) EGFR Target Modulation in H1975, H3255 and HCC827 Cell Lines Tissue Culture. Cells were maintained in 10% FBS/RPMI supplemented with 100 μg/ml Penicillin/Streptomycin (Hyclone #SH30236.01). […] The cells were allowed to incubate overnight in a 37° C., 5% CO2 humidified tissue culture incubator. […] The serial diluted compounds were transferred to the plate containing cells by using a 50 nl Pin Head device (Perkin Elmer) and the cells were placed back in the incubator for 3 hours. Phospho-EGFR ([…]) Target Modulation Assay. The media was reduced to 20 ul using a Bio-Tek ELx 405 SelectTM plate washer. […] The plates were shaken at 4° C. for 20 minutes. An aliquot of 25 ul from each well was transferred to pEGFR(Y1173) ELISA plates for analysis. Phospho-EGFR ([…]) ELISA. Solid white high-binding ELISA plates (Greiner #781074) were coated with 5 ug/ml anti-EGFR capture antibody (R&D Systems #AF231) overnight in 50 mM carbonate/bicarbonate pH 9.5 buffer. Plates were blocked with 1% BSA (Sigma #A7030) in PBS for 1 hour at room temperature. Wash steps were carried out with a Bio-Tek ELx405 SelectTM using 4 cycles of 100 ul TBS-T (20 mM Tris, 137 mM NaCl, 0.05% Tween-20) per well. […] Lysis was allowed to occur for 20 minutes on ice. A 25 ul aliquot was added to each well of the blocked ELISA plate and incubated overnight at 4° C. with gentle shaking. […] After washing, 1:2,000 anti-rabbit-HRP (Cell Signaling #7074) in 0.2% BSA/TBS-T was added and incubated for 1 hour at room temperature. Chemiluminescent detection was carried out with SuperSignal ELISA Pico substrate (ThermoScientific #37069). Signal was read on EnVision plate reader using built-in UltraLUM setting. Data Analysis. Control cells treated with EGF were set to 100% maximum response. […] With these parameters, the IC50's for each compound in each cell line was calculated using non-linear curve fitting analysis.

[6] = target: H1975 (EGFR L858/T790M) (Homo sapiens, UniProt P00533, L858R/T790M); assay: EGFR target modulation in H1975 cell line (phospho-EGFR Y1173 ELISA); format: cell-based
Description: as §2

[7] = target: human EGFR WT (NIH/3T3 cells, EGF-induced) (Homo sapiens, UniProt P00533); assay: EGFR target modulation in engineered NIH/3T3 cell lines (phospho-EGFR Y1068 AlphaLISA), EGFR WT; format: cell-based; conditions: engineered NIH/3T3 cells, read-out: NIH3T3 IC50 (μM) EGFR (WT)
Procedure, shortened: as §1

[8] = EGFR (L858R/T790M) with 90 min pre-incubation, read-out: IC50 (μM) Column B
[9] = EGFR (L858R/T790M) with no pre-incubation, read-out: IC50 (μM) Column A

Sequence of H1975 (EGFR L858/T790M) (P00533 25-1210 T790M/L858R): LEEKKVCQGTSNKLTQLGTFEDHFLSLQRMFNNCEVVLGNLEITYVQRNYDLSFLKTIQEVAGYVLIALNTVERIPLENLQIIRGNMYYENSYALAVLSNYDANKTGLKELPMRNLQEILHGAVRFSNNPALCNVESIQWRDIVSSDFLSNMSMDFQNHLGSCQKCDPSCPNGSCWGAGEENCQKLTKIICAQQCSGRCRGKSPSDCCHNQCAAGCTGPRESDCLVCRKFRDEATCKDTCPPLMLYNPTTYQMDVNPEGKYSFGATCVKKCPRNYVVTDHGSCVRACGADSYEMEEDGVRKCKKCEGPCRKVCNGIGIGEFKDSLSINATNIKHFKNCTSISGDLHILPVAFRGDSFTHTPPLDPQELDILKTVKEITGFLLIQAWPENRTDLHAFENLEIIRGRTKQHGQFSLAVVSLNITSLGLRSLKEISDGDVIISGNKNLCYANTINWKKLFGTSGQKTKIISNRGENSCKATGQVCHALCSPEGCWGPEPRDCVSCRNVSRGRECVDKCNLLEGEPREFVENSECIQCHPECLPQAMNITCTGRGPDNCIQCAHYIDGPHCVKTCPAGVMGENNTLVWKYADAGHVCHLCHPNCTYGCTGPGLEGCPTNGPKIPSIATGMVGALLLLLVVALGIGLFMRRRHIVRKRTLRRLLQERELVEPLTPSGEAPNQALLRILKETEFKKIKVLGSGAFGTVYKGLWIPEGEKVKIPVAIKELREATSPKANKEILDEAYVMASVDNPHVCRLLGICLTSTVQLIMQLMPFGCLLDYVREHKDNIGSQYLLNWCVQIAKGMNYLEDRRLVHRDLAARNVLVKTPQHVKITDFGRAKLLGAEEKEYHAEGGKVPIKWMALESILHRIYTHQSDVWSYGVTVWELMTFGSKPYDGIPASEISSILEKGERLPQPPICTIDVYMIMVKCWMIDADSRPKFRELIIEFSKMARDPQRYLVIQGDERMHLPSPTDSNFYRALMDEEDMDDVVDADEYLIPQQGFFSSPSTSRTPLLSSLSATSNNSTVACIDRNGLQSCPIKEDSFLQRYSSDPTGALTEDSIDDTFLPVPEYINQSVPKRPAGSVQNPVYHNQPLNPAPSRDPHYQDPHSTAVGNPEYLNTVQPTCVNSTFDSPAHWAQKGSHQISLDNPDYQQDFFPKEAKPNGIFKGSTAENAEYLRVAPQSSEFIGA
Sequence of human EGFR L858R/T790M (NIH/3T3 cells) (P00533 25-1210 T790M/L858R): as above
Sequence of human EGFR L858R (NIH/3T3 cells) (P00533 25-1210 L858R): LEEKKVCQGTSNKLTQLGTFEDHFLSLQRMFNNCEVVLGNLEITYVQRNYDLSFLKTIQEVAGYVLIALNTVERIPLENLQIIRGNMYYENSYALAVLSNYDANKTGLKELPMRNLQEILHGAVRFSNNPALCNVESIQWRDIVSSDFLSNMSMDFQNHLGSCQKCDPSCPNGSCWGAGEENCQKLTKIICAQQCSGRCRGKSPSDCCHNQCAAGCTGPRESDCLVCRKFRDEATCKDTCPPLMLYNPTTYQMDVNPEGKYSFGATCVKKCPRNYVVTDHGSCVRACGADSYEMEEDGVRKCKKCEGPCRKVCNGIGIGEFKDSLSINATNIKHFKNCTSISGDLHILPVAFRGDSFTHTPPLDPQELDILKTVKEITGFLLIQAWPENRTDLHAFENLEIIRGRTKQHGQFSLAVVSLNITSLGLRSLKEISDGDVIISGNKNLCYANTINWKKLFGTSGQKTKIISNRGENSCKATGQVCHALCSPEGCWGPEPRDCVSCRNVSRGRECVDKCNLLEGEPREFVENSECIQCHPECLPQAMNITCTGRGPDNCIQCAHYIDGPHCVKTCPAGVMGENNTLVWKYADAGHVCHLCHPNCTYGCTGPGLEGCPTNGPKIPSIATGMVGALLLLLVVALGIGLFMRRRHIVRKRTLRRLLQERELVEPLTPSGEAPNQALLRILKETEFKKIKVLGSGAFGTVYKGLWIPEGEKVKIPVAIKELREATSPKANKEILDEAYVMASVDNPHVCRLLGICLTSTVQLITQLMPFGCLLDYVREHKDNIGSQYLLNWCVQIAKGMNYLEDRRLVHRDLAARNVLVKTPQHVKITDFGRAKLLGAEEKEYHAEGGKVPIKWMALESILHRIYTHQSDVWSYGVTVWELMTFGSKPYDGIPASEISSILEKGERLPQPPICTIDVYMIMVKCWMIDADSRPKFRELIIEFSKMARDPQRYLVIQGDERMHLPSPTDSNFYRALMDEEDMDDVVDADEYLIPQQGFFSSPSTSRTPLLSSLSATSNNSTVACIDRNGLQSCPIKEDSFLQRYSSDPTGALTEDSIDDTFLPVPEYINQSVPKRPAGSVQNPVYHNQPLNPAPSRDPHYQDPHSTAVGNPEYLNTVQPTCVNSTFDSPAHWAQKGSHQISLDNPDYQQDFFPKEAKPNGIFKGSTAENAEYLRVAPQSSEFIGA
Sequence of H3255 (EGFR L858R) (P00533 25-1210 L858R): as above

SMILES | IC50 [1, 8] | IC50 [1, 9] | IC50 [2] | IC50 [3] | IC50 [4] | IC50 [5] | IC50 [6] | IC50 [7]
C=CC(=O)N1CCCC[C@@H](n2c(NC(=O)c3cccc(C(F)(F)F)c3)nc3cccc(C)c32)C1 (single isomer, unassigned) [Example 21-4] | < 0.001 µM | 0.006 µM | 0.004 µM | 0.002 µM | 285 nM | 13 nM | 1 nM | 0.239 µM
Cc1ncc(C(=O)Nc2nc3cccc(C)c3n2C2CCCCN(C(=O)/C=C/CN(C)C)C2)s1 (single isomer, unassigned) [Example 21-8B] | < 0.001 µM | 0.006 µM | 0.001 µM | 0.002 µM | 95 nM | 2 nM | 4 nM | 0.016 µM
Cc1cc(C(=O)Nc2nc3cccc(Cl)c3n2[C@@H]2CCCCN(C(=O)/C=C/CN3CC[C@@H](F)C3)C2)ccn1 [Example 3-1] | < 0.001 µM | 0.005 µM | 0.003 µM | 0.004 µM | 340 nM | 7 nM | 6 nM | 0.235 µM
Cc1cc(C(=O)Nc2nc3cccc(Cl)c3n2[C@@H]2CCCCN(C(=O)/C=C/CN3CC[C@H](F)C3)C2)ccn1 [Example 3-2] | < 0.001 µM | 0.007 µM | 0.006 µM | 0.006 µM | 720 nM | 11 nM | 9 nM | 0.303 µM
Cc1cc(C(=O)Nc2nc3cccc(C)c3n2[C@@H]2CCCCN(C(=O)/C=C/CN3CC[C@@H](F)C3)C2)ccn1 [Example 3-10] | < 0.001 µM | 0.006 µM | – | – | 620 nM | 13 nM | 8 nM | –
O=C(Nc1nc2cccc(Cl)c2n1[C@@H]1CCCCN(C(=O)/C=C/CN2CC[C@@H](F)C2)C1)c1ccnnc1 [Example 3-11] | < 0.001 µM | 0.005 µM | – | – | 169 nM | 9 nM | 7 nM | –
Cc1cc(C(=O)Nc2nc3cccc(Cl)c3n2[C@@H]2CCCCN(C(=O)/C=C/CN3CCC3)C2)ccn1 [Example 3-12] | 0.011 µM | 0.133 µM | 0.05 µM | 0.123 µM | > 10000 nM | 200 nM | 186 nM | 1.13 µM
Cc1cc(C(=O)Nc2nc3cccc(Cl)c3n2[C@@H]2CCCCN(C(=O)/C=C/CN3CC(O)C3)C2)ccn1 [Example 3-13] | < 0.001 µM | 0.007 µM | 0.014 µM | 0.022 µM | 900 nM | 12 nM | 19 nM | 0.41 µM
Cc1cc(C(=O)Nc2nc3cccc(C)c3n2[C@@H]2CCCCN(C(=O)/C=C/CN(C)C)C2)ccn1 [Example 7, (R,E)-N-(1-(1-(4-(dimethylamino)but-2-enoyl)azepan-3-yl)-7-methyl-1H-benzo[d]imidazol-2-yl)-2-methylisonicotinamide] | < 0.001 µM | 0.002 µM | 0.001 µM | 0.001 µM | 74 nM | 2 nM | 1 nM | 0.019 µM
Cc1cccc2nc(NC(=O)c3ccnc(C(F)(F)F)c3)n([C@@H]3CCCCN(C(=O)/C=C/CN(C)C)C3)c12 [Example 8, (R,E)-N-(1-(1-(4-(dimethylamino)but-2-enoyl)azepan-3-yl)-7-methyl-1H-benzo[d]imidazol-2-yl)-2-(trifluoromethyl)isonicotinamide] | – | – | 0.001 µM | 0.001 µM | 82 nM | 2 nM | 1 nM | 0.021 µM
C=CC(=O)N1CCCC[C@@H](n2c(NC(=O)c3ccnnc3)nc3ccc(OC)c(Cl)c32)C1 [Example 9, (R)—N-(1-(1-acryloylazepan-3-yl)-7-chloro-6-methoxy-1H-benzo[d]imidazol-2-yl)pyridazine-4-carboxamide] | < 0.001 µM | 0.006 µM | 0.008 µM | 0.002 µM | 152 nM | 8 nM | 3 nM | 0.101 µM
COc1ccc2nc(NC(=O)c3ccnnc3)n([C@@H]3CCCCN(C(=O)/C=C/CN(C)C)C3)c2c1Cl [Example 17-2] | 0.002 µM | 0.018 µM | 0.018 µM | 0.015 µM | 2340 nM | 170 nM | 76 nM | 0.38 µM
C=CC(=O)N1CCCC[C@@H](n2c(NC(=O)c3cccc(F)c3F)nc3cc(CN4CC[C@@H](OC)C4)cc(C)c32)C1 [Example 17-160] | < 0.001 µM | 0.007 µM | – | – | 237 nM | 17 nM | 1 nM | –
C=CC(=O)N1CCCC(n2c(NC(=O)c3cccc(C(F)(F)F)c3)nc3c2CN(C)CC3)C1 (stereo not shown) [Example 17-173] | 0.285 µM | 6.6 µM | 0.67 µM | 0.84 µM | – | – | – | > 10 µM
COc1ccc2nc(NC(=O)c3ccnc(C)c3)n([C@@H]3CCCCN(C(=O)/C=C/CN(C)C)C3)c2c1Cl [Example 17-177] | < 0.001 µM | 0.003 µM | – | – | 93 nM | 4 nM | 4 nM | –
COc1cc2nc(NC(=O)c3cc(C)nc(C)c3)n([C@@H]3CCCCN(C(=O)/C=C/CN(C)C)C3)c2cc1Cl [Example 17-179] | 0.012 µM | 0.23 µM | – | – | 5400 nM | 188 nM | 234 nM | –
C=CC(=O)N1CCC[C@@H](n2c(NC(=O)c3cccc(C(F)(F)F)c3)nc3cc(C(=O)O)ccc32)C1 [Example 18, (R)-1-(1-acryloylpiperidin-3-yl)-2-(3-(trifluoromethyl)benzamido)-1H-benzo[d]imidazole-5-carboxylic acid] | 0.041 µM | 2.59 µM | > 10 µM | 6.3 µM | – | – | – | > 10 µM
C=CC(=O)N1CCCCC(n2c(NC(=O)c3cccc(C(F)(F)F)c3)nc3cccc(C(=O)O)c32)C1 (stereo not shown) [Example 20, 1-(1-acryloylazepan-3-yl)-2-(3-(trifluoromethyl)benzamido)-1H-benzo[d]imidazole-7-carboxylic acid] | 0.005 µM | 0.11 µM | 3.3 µM | 0.82 µM | – | – | – | > 10 µM
